Measurements taken from US6627630B1, “Condensed pyridazine derivatives, their production and use” (Takeda Chemical Industries, Ltd., priority 1998, dated 2003).

tested on: histamine-induced skin reactions; assay: Effect on histamine-induced skin reactions in guinea pigs; format: in vivo, guinea pig; conditions: 1 hour before intradermal histamine, Table 1
Procedure: Effect on Histamine-induced Skin Reactions in Guinea Pigs
(§1) Male Hartley guinea pigs weighing about 500 g were used. After the dorsal hair was shaved under ether anesthesia, 1 ml of a 2.5% pontamine sky blue solution was injected intravenously administered, and then 0.1 ml of histamine at 3 μg/ml was injected intradermally into 2 sites (left and right) in the back. Thirty minutes after the injection of histamine, animals were killed by bleeding and the skin was removed. Two perpendicular diameters (mm) of each blue spot on the inside of the skin were measured and multiplied; the mean for the two products was taken as the microvascular permeability index. Test compounds were suspended in a 5% gum arabic solution and orally administered in a volume of 0.2 ml/100 g body weight 1 hour before histamine administration. Animals in the control group received the same volume of a 5% gum arabic solution. The suppression rate of the sample for the title reaction was calculated using Equation 1.
Inhibition (%) of histamine-induced skin reactions=100×(1−vascular permeability index in the presence of drug/vascular permeability index in control group) Equation 1
as §1, with “bleeding and he skin was” for “bleeding and the skin was”, “measured and multiplied, the mean” for “measured and multiplied; the mean”

| Compound | Inhibition (%) of Histamine-induced Skin Reactions, 3 mg/kg Oral Administration [%] |
| --- | --- |
| O=C(CCN1CCC(OC(c2ccccc2)c2ccccc2)CC1)Nc1ccc2ncnn2n1 [Example 18A] | 91 |
| CC(C)(C(=O)O)c1cn2nc(OCCCN3CCC(OC(c4ccccc4)c4ccccc4)CC3)ccc2n1 [Example 45A] | 91 |
| CC(C)(C(=O)O)c1cn2nc(NCCCN3CCC(OC(c4ccccc4)c4ccccc4)CC3)ccc2n1.O.O [Example 135A, 2-[6-[3-[4-(Diphenylmethoxy)piperidino]propylamino]imidazo[1,2-b]pyridazin-2-yl)-2-methylpropionic Acid Dihydrate] | 91 |

same assay, conditions: 1 hour before intradermal histamine, Table 3

| Compound | Inhibition (%) of Histamine-induced Skin Reactions, 3 mg/kg Oral Administration [%] |
| --- | --- |
| CC(C)(C(=O)O)c1cn2nc(NCCCN3CCC(OC(c4ccccc4)c4ccccc4)CC3)ccc2n1.O.O [Example 135A, 2-[6-[3-[4-(Diphenylmethoxy)piperidino]propylamino]imidazo[1,2-b]pyridazin-2-yl)-2-methylpropionic Acid Dihydrate] | 91 |

tested on: not given; assay: not given; conditions: not given

| Compound | melting point [°C] |
| --- | --- |
| CC(C)(C)OC(=O)c1nc2ccc(NCCCN3CCC(OC(c4ccccc4)c4ccccc4)CC3)nn2n1 [Example 116A, tert-Butyl[6-[3-[4-(Diphenylmethoxy)piperidino]propylamino][1,2,4]triazolo[1,5-b]pyridazin-2-yl]carboxylate] | 133 to 135 |
| CCOC(=O)CNC(=O)c1nc2ccc(NCCCN3CCC(OC(c4ccccc4)c4ccccc4)CC3)nn2c1C [Example 127A, N-[6-[3-[4-(Diphenylmethoxy)piperidino]propylamino]-3-methylimidazo[1,2-b]pyridazine-2-carbonyl]glycine Ethyl Ester] | 158 to 160 |
| Cc1c(C(C)(C)C(=O)O)nc2ccc(NCCCN3CCC(OC(c4ccccc4)c4ccccc4)CC3)nn12 [Example 138A, 2-[6-[3-[4-(Diphenylmethoxy)piperidino]propylamino]-3-methylimidazo[1,2-b]pyridazin-2-yl]-2-methylpropionic Acid] | 219 to 220 |

More lines, now with the values ahead:

| melting point [°C] | Compound |
| --- | --- |
| 135 to 138 | O=C(O)c1nc2ccc(NCCCN3CCC(OC(c4ccccc4)c4ccccc4)CC3)nn2n1 [Example 117A, [6-[3-[4-(Diphenylmethoxy)piperidino]propylamino][1,2,4]triazolo[1,5-b]pyridazin-2-yl]carboxylic Acid] |
| 120 to 122 | COC(=O)c1cc2ncnn2nc1NCCCN1CCC(OC(c2ccccc2)c2ccccc2)CC1 [Example 118A, Methyl[6-[3-[4-(Diphenylmethoxy)piperidino]propylamino][1,2,4]triazolo[1,5-b]pyridazin-7-yl]carboxylate] |
| 207 to 209 | O=C(O)c1cc2ncnn2nc1NCCCN1CCC(OC(c2ccccc2)c2ccccc2)CC1 [Example 119A, [6-[3-[4-(Diphenylmethoxy)piperidino]propylamino][1,2,4]triazolo[1,5-b]pyridazin-7-yl]carboxylic Acid] |
| 126 to 127 | CC(C)OC(=O)c1nc2ccc(OCCCN3CCC(OC(c4ccccc4)c4ccccc4)CC3)nn2n1 [Example 122A, Isopropyl[6-[3-[4-(Diphenylmethoxy)piperidino]propoxy][1,2,4]triazolo[1,5-b]pyridazin-2-yl]carboxylate] |
| 173 to 177 | O=C(O)c1nc2ccc(OCCCN3CCC(OC(c4ccccc4)c4ccccc4)CC3)nn2n1 [Example 123A, [6-[3-[4-(Diphenylmethoxy)piperidino]propoxy][1,2,4]triazolo[1,5-b]pyridazin-2-yl]carboxylic Acid] |
| 256 to 258 | O=C(O)CNC(=O)c1nc2ccc(NCCCN3CCC(OC(c4ccccc4)c4ccccc4)CC3)nn2n1 [Example 125A, N-[6-[3-[4-(Diphenylmethoxy)piperidino]propylamino][1,2,4]triazolo[1,5-b]pyridazine-2-carbonyl]glycine] |
